According to patent publication US9289463B2, “Octreotide-modified nanomedicine for cancer treatment or cancer palliative care” (NANOSION CO., LTD., priority 2010, dated 2016):
pIC50: −log10 of the molar value.

Experiments:
[1] = system: TT cells; test: Cytotoxicity test using non-drug-encapsulating liposomes; format: cell-based, human; conditions: 0.042-8.4 μM Oct, 96 hours, no drug encapsulated
Protocol: Next, a cytotoxicity test was conducted using non-CPT-11-encapsulating liposomes, in order to evaluate the effect of the ligand (Oct) on cytotoxicity. […] After rinsing the cells with PBS, a coloring reagent was added and the absorbance at 450 nm was measured.
In FIG. 4, the four bars for each concentration are, from the left, the cell survival rates (%) for free Oct, Empty 1.6Oct-CL, Empty 4.4Oct-CL and Empty SL, respectively.

[2] = system: TT cells; test: Competitive inhibition test of intracellular uptake; format: cell-based, human; conditions: free Oct in 20-fold molar excess (84 nmol/ml), 37° C., 2 hours
Protocol: A competitive inhibition test was conducted to examine whether or not the intracellular uptake observed in Example 2 takes place via somatostatin receptor (SSTR).
The competitive inhibition is shown schematically in FIG. 2(A).

[3] = system: TT cells; test: Effect of CPT-11-encapsulating liposomes in vivo, TT cell tumor-bearing mice (four mice per group)
Protocol: The following test was conducted to examine the in vivo effect of CPT-11-encapsulating Oct-modified liposomes. After transplanting 10^7 TT cells into mice (ICR nu/nu mice, 6-week-old, female, Oriental Yeast Co., Ltd.), tumors with tumor volumes of […] formed. To four mice in each group there were administered unmodified liposomes (CL) at 10 mg/kg body weight, as the CPT-11 amount, liposomes modified with 1.6 mol % Oct-PEG-DSPE (1.6Oct-CL), and liposomes modified with 1.6 mol % Oct-PEG-DSPE and 0.9% mol % PEG-DSPE (1.6Oct-SL). The administration was twice (1st and 4th days) through the caudal vein. As a control there was administered physiological saline and free CPT-11 (30 mg/kg), three times (1st, 4th and 7th days). The tumor size and body weight were periodically measured. […] The column headed “% ILS” in Table 3 contains the values calculated by the formula: [(mean survival days of treated group)−(mean survival days of control group)/(mean survival days of control group)]×100(%), with physiological saline as the control. The column headed “Median” in Table 3 contains the median values for survival time (days) for each group consisting of N animals.

[4] = system: TT cells; test: Cytotoxicity test using CPT-11-encapsulating liposomes; format: cell-based; conditions: Homo sapiens
Protocol: TT cells were seeded into a 96-well plate at a density of 10^4 cells/well, and free CPT-11, 1.6Oct-CL or SL was added thereto at various concentrations prior to incubation for 48 hours, 72 hours and 96 hours. Next, after rinsing the cells with PBS, a coloring reagent (Cell Counting kit-8, Dojindo Laboratories) was added at 10 μL per well (100 μL), the absorbance at 450 nm was measured and IC50 (μM) was calculated.

[5] = liposomes 10 mg/kg as CPT-11 twice, free CPT-11 30 mg/kg three times

C[C@@H](O)[C@@H]1NC(=O)[C@H](CCCCN)NC(=O)[C@@H](Cc2c[nH]c3ccccc23)NC(=O)[C@H](Cc2ccccc2)NC(=O)[C@@H](NC(=O)[C@H](N)Cc2ccccc2)CSSC[C@@H](C(=O)N[C@H](CO)[C@@H](C)O)NC1=O [free Oct, octreotide]
cytotoxicity (cell survival rate) [1]: Cytotoxicity was observed | effect of competitor on intracellular uptake of DXR-encapsulating 1.6Oct-CL [2]: did not affect

CCc1c2c(nc3ccc(OC(=O)N4CCC(N5CCCCC5)CC4)cc13)-c1cc3c(c(=O)n1C2)COC(=O)[C@]3(O)CC [Free CPT-11, irinotecan]
Survival time Median ([3]; liposomes 10 mg/kg as CPT-11, caudal vein, 1st and 4th days, free CPT-11 30 mg/kg, 1st, 4th and 7th days): 88 (4) days | survival time and survival rate (life-lengthening effect) [3, 5]: no life-lengthening effect was observed | tumor size [3, 5]: tumor size increased | Survival time % ILS ([3]; physiological saline as control, liposomes 10 mg/kg as CPT-11 twice, free CPT-11 30 mg/kg three times): 30.4% | pIC50 ([4]; 48 hrs incubation): 4.87 | pIC50 ([4]; 72 hrs incubation): 5.18 | pIC50 ([4]; 96 hrs incubation): 5.66
